Test results reported in PubChem BioAssay AID1159563 (GlaxoSmithKline (GSK), 2015).
The source made the active and inactive calls. No rule for the calls is given here.

Tested on: HepG2 cytotoxicity
Experiment: HepG2 cell cytotoxicity, cytotoxicity control (AID 1159563)

Cc1ccc(NC(=O)c2ccnc(N3CCCC3)c2)cc1-c1ccsc1C(N)=O
IC50: > 100 µM (inactive)

COCc1cc(Nc2ccccc2)nc(-c2ccccn2)n1
IC50: 100 µM

CCCCn1c(=O)c2c(N)onc2n(CCCC)c1=O
IC50: 50 µM

Cc1ccc2sc(NC(=O)Cn3cnc([N+](=O)[O-])n3)nc2c1
IC50: > 100 µM (inactive)

CCc1cccc(-n2nc(OCC(=O)NC3CCCC3)c3cccnc32)c1
IC50: > 100 µM (inactive)

O=C(Nc1ccc(C(=O)N2CCCC2c2ccc3c(c2)OCCCO3)cc1)c1ccco1 (stereo not given)
IC50: > 100 µM (inactive)

CC(C)(C)C(=O)Nc1cc(C2CC2)nn1-c1nc2c(c(=O)[nH]1)CCCC2
IC50: > 100 µM (inactive)

Oc1c(-c2n[nH]c(CCc3ccccc3)n2)ncc2cccnc12
IC50: 40 µM

O=C(CN1CCN(S(=O)(=O)c2cccc([N+](=O)[O-])c2)CC1)Nc1ccc(Oc2ccccc2)cc1
IC50: > 100 µM (inactive)

COc1cccc(-c2cc(C(F)(F)F)nc(-n3ccc([N+](=O)[O-])n3)n2)c1
IC50: > 100 µM (inactive)

O=C(Nc1ccccc1C(=O)Nc1ccccn1)c1ccco1
IC50: > 100 µM (inactive)

CC(C)(C)Nc1nc(Nc2ccc3c(c2)CS(=O)(=O)C3)nc2[nH]ccc12
IC50: 32 µM

CC(=O)Nc1ccc(-c2csc(NC(=O)c3ccc([N+](=O)[O-])s3)n2)cc1
IC50: 50 µM

Cc1ccc2c(c1)-c1onc(C(=O)N3CCCCC3c3cccnc3)c1CO2 (stereo not given)
IC50: 50 µM

Cc1[nH]n2c(=O)c3c(nc2c1-c1ccc(Br)cc1)CCCC3
IC50: > 100 µM (inactive)

CCOc1ccc(NC(=O)c2ccc(NC(=O)NC3CCCCC3)cc2)cc1
IC50: > 100 µM (inactive)

Cc1nn(-c2nc(N)nc(-c3ccccn3)n2)c(N)c1-c1ccccc1
IC50: 63 µM

N#CN1CC[C@@H](NC(=O)Nc2ccccc2Oc2ccccc2)C1
IC50: 40 µM

O=C(CC1(O)C(=O)N(Cc2ccccc2)c2ccc(Br)cc21)c1cccnc1 (stereo not given)
IC50: 63 µM

CCCCc1cc(Nc2cc(C3CCC3)[nH]n2)nc(N2CCC2C(N)=O)n1 (stereo not given)
IC50: > 100 µM (inactive)

N#Cc1cccc(Nc2nccc(N3CCC(NS(=O)(=O)c4cccc(C#N)c4)CC3)n2)c1
IC50: 50 µM

CC1=C(C(=O)Nc2ccc(Cl)cc2)C(c2ccncc2)n2ncc(C(=O)Nc3ccccc3)c2N1 (stereo not given)
IC50: 79 µM

N#Cc1cccc(Cc2cc(Nc3cc(C4CC4)[nH]n3)nc(N3CC[C@H]3C(N)=O)n2)c1
IC50: > 100 µM (inactive)

O=C(Cc1ccccc1)Nc1ccccc1C(=O)Nc1nccs1
IC50: > 100 µM (inactive)

COc1ccc2ncc(F)c(CCN3CC[C@@H](NC(=O)c4cc5c(s4)CCC5)[C@@H](O)C3)c2n1
IC50: 50 µM

O=C(Cn1cnc([N+](=O)[O-])n1)Nc1ccc(Cl)cc1C(=O)c1ccccc1
IC50: > 100 µM (inactive)

Cc1cccnc1NC(=O)c1cccc(OCc2c(C)noc2C)c1
IC50: > 100 µM (inactive)

O=c1cc(NCCCNCc2cc(C(F)(F)F)cs2)[nH]c2ccccc12
IC50: 63 µM

O=C(Nc1ccc(Br)c(Cl)c1)Nc1ccc2c(c1)OCO2
IC50: > 100 µM (inactive)

O=C(CSc1nnc2ccc(-c3ccc(F)cc3)nn12)N1CCCCC1
IC50: > 100 µM (inactive)

Cn1nccc1-c1cc(OC(CN)c2ccccc2)cnc1-c1ccco1 (stereo not given)
IC50: 50 µM

CS(=O)(=O)NC1CCC(Oc2cc3cnccc3cc2-c2ccsc2)CC1 (stereo not given)
IC50: 63 µM

Cn1nc([N+](=O)[O-])nc1Oc1ccc(C(=O)c2ccccc2)cc1
IC50: > 100 µM (inactive)

C[C@@H](Oc1cc(-n2cnc3ccc(C(O)CO)cc32)sc1C(N)=O)c1ccccc1C(F)(F)F (stereo not given in full)
IC50: > 10 µM (inactive)

Cc1ccc(S(C)(=O)=O)cc1Nc1nccc(-c2sc(N)nc2-c2ccccc2)n1
IC50: 32 µM

O=C(N1CCc2ccccc2CC1)C1(C(=O)N2CCC(n3c(=O)[nH]c4ncccc43)CC2)CC1
IC50: > 100 µM (inactive)

C=CC[C@@H]1CC=C[C@@H](C)N1C(=O)CCc1nnc(-c2ccc3c(c2)OCO3)o1
IC50: > 100 µM (inactive)

CS(=O)(=O)c1ccc(CC(=O)Nc2nc(-c3ccc(Cl)s3)cs2)cc1
IC50: > 100 µM (inactive)

O=C(CN1CCC2(O)CCCCC2C1c1ccc2c(c1)OCO2)Nc1ccc(Cl)cc1Cl (stereo not given)
IC50: > 100 µM (inactive)

CCOC(=O)c1noc(N)c1-c1ccccc1
IC50: > 100 µM (inactive)

COc1cnc2ccc(=O)n(CCN3CCC(NC(=O)Cc4ccc(Cl)c(Cl)c4)CC3)c2c1
IC50: 63 µM

COc1ncc(-c2ccc3ncnc(N4CCOCC4)c3c2)cc1NS(C)(=O)=O
IC50: > 100 µM (inactive)

CN(CC1CCCO1)S(=O)(=O)c1ccc(C(=O)Nc2nc(-c3ccccn3)cs2)cc1 (stereo not given)
IC50: 63 µM

COc1ccc2ncc(Cl)c(CCN3CC[C@H](NCc4cc5c(cn4)OCS5)[C@@H](O)C3)c2n1
IC50: 25 µM

O=C(NCc1ccc(-n2cccc2)cc1)c1nc(Cn2ccc([N+](=O)[O-])n2)no1
IC50: > 100 µM (inactive)

Cc1nn(C)c(Cl)c1CN(Cc1cccnc1)Cc1ccsc1
IC50: > 100 µM (inactive)

COc1ccc(NS(=O)(=O)c2ccc(S(=O)(=O)N(C)C3CCCCC3)cc2)c2ncccc12
IC50: > 100 µM (inactive)

Cn1nccc1NC(=O)Cn1ccc(-c2ccncc2)n1
IC50: > 100 µM (inactive)

COCc1cnc2c(c1SCc1c(F)cccc1Cl)c(=O)n(C)c(=O)n2C
IC50: > 100 µM (inactive)

CC(Cn1ccnc1)NC(=O)C=Cc1ccc(Cl)cc1 (stereo not given)
IC50: > 100 µM (inactive)

N#Cc1cccc(CNc2ccc(-c3cnn(CC4CC4)c(=O)c3C#N)cc2)c1
IC50: > 100 µM (inactive)

NS(=O)(=O)c1ccc(Nc2nccc(-c3cnn4ncccc34)n2)cc1
IC50: > 100 µM (inactive)

CC(C)CC(=O)NC(c1cccs1)c1ccc2cccnc2c1O (stereo not given)
IC50: > 100 µM (inactive)

COc1ccc(NS(=O)(=O)c2cc(NC(=O)c3ccc([N+](=O)[O-])s3)ccc2OC)cc1
IC50: > 100 µM (inactive)

O=c1oc2ccccc2n1C1CCN(Cc2ccccc2-c2cccnc2)CC1
IC50: > 100 µM (inactive)

Cc1nc(-c2ccc3c(c2)OCO3)sc1C(=O)NCc1ccc2c(c1)OCO2
IC50: > 100 µM (inactive)

Cn1ccnc1-c1nc(NCc2ccccc2Cl)cc(C2CC2)n1
IC50: 20 µM

Cc1cc2nc(CN(C)Cc3ncccc3C)[nH]c2cc1C
IC50: 40 µM

Cc1nc(C(=O)Nc2ccc3c(c2)OCO3)nn1-c1ccc(F)cc1
IC50: > 100 µM (inactive)

COc1ccc(C(=O)Nc2cc(C(F)(F)F)ccc2N2CCOCC2)c(OC)c1
IC50: > 100 µM (inactive)

CCC(=O)Nc1ccccc1C(=O)Nc1ccccn1
IC50: > 100 µM (inactive)

NS(=O)(=O)c1ccc(Nc2ncc3cccc(OC4CCNCC4)c3n2)cc1
IC50: > 100 µM (inactive)

Cc1ccc(Nc2nc(-c3ccccn3)cc(N3CCCC(O)C3)n2)cc1 (stereo not given)
IC50: 40 µM

O=S(=O)(c1cccc(CSc2nnc(-c3ccc4c(c3)OCO4)o2)c1)N1CCOCC1
IC50: > 100 µM (inactive)

CCn1c(NC(=O)Cc2ccc(F)cc2)nc2ccccc21
IC50: > 100 µM (inactive)

C[C@@H](Oc1cc(-n2cnc3ccc(CC(O)CO)cc32)sc1C(N)=O)c1ccccc1Cl (stereo not given in full)
IC50: > 100 µM (inactive)

CC(C)(C)CC(=O)NCc1noc(COc2ccccc2)n1
IC50: > 100 µM (inactive)

O=C(COc1ncnc2cc([N+](=O)[O-])ccc12)NC(=O)NC1CCCCC1
IC50: > 100 µM (inactive)

CCCCn1nnnc1CSc1nc(C)cc(C)c1C#N
IC50: > 100 µM (inactive)

COc1ccc(OC)c(S(=O)(=O)N(Cc2c(F)cccc2F)[C@@H]2CCN(C#N)C2)c1
IC50: 79 µM

Cc1cc(=O)n2nc(Oc3ccc(C#N)cc3Cl)sc2n1
IC50: 40 µM

O=c1[nH]ccc2ccc(-c3ccncc3)cc12
IC50: > 100 µM (inactive)

CC(C)(C)Nc1nc(-c2ccccn2)nc2ccccc12
IC50: 20 µM

CCc1cccc(CC)c1-n1c(SCC(=O)NC(=O)NCc2ccco2)nnc1-c1cccnc1
IC50: > 100 µM (inactive)

CCN(CC)S(=O)(=O)c1ccc(C(=O)Nc2cc(C)nn2-c2nc(C)c(C)c(=O)[nH]2)cc1
IC50: > 100 µM (inactive)

c1ccc(Nc2nc3ccccc3[nH]2)nc1
IC50: 79 µM

Cc1[nH]nc(C(F)(F)F)c1NC(=O)CCn1cc(Cl)c([N+](=O)[O-])n1
IC50: > 100 µM (inactive)

COc1ccc2ncc(F)c(NC(=O)C3(O)CCC(NCc4ccc5c(c4)OCCO5)CC3)c2n1 (stereo not given)
IC50: 50 µM

CC(C)CC(=O)Nc1cc(C2CC2)nn1-c1nc2c(c(=O)[nH]1)CCCC2
IC50: > 100 µM (inactive)

N#Cc1nc(C=Cc2ccccc2)oc1NCc1cccnc1
IC50: > 100 µM (inactive)

O=C(Cc1ccccc1)Nc1[nH]nc2sc(C(=O)NC3CCCC3)cc12
IC50: 50 µM

O=C(CCCNC(=O)c1ccc(Cl)cc1)Nc1nc(-c2ccccn2)cs1
IC50: > 100 µM (inactive)

CN(C)c1ccc(-c2cc3nccnc3c(OC[C@H]3CCCNC3)n2)cn1
IC50: 63 µM

COc1cccc(S(=O)(=O)Nc2ccc3c(c2)CC(N2CCC(NC(=O)C4CC4)CC2)C3)c1 (stereo not given)
IC50: > 100 µM (inactive)

COc1ccc(NS(=O)(=O)c2cc(-c3cc(C)[nH]n3)ccc2C)cc1OC
IC50: > 100 µM (inactive)

Cc1[nH]nc(Nc2ccnc3[nH]ccc23)c1C
IC50: > 100 µM (inactive)

CC(=Cc1ccccc1)CN1CCC(=O)N(Cc2cccnc2)CC1
IC50: > 100 µM (inactive)

COc1cccc2sc(CN(C)C(=O)C3CNCCN3c3ccc(F)cc3)c(C)c12 (stereo not given)
IC50: 13 µM

Nc1nc(-c2ccccn2)nc(-n2nc(-c3ccccc3)cc2N)n1
IC50: 10 µM

Cc1cc2nc(N3CC[C@H]3C(N)=O)nc(Nc3cc(C4CC4)[nH]n3)c2s1
IC50: > 100 µM (inactive)

CC(C)Nc1nc(Cl)nc2ccccc12
IC50: 40 µM

CN1CCC(N(C)c2nccc(N3CCN(C(=O)c4cccc(-c5cccnc5)c4)CC3)n2)CC1
IC50: 40 µM

COc1ccc(C2CC(c3ccccc3Cl)=NN2C(=O)CNC(=O)C2CCCC2)cc1 (stereo not given)
IC50: > 100 µM (inactive)

O=C(NCCc1csc(-c2ccc(F)cc2)n1)c1cccs1
IC50: > 100 µM (inactive)

Cc1cc(Br)cc(C(=O)c2c(C(C)C)c(=O)[nH]c(=O)n2Cc2ccnc(N)c2)c1
IC50: > 100 µM (inactive)
